# From patent US10287300B2 (Merck Patent GmbH, priority 2012, dated 2019)
# Key:
# His-AKT (Full Length) = His-AKT (Full Length) (Homo sapiens (Human), UniProt P31749); test: AKT enzyme assay; assay type: biochemical; settings: 160 uM ATP, 90 min at 25° C.
# Protocol: A TTP Mosquito liquid handling instrument was used to place 125 nl of the appropriate concentration of inhibitor in 100% DMSO (for a dose response curve calculation) into each well of a 384-well plate. To this reaction components were added to a final volume of 12.5 μl: • 0.1 ng/μl His-AKT (Full Length), (Invitrogen, Part # P2999, Lot #641228C). • 160 uM ATP (Fluka, 02055) • 1 mM DTT (Sigma, D0632) • 1 mM MgCl2 (Sigma, M1028) • 1 μM substrate peptide (sequence FITC-AHA-GRPRTSSFAEG-NH2), • synthesized by Tufts Peptide Synthesis service. • 100 mM HEPES pH 7.5 (Calbiochem, 391338) • 0.015% Brij-35 (Sigma, B4184)
# The reaction was incubated for 90 min at 25° C., and then stopped by the addition of 70 μl of Stop buffer (100 mM HEPES pH 7.5, 0.015% Brij-35, 10 mM EDTA (Sigma, E7889)).
# The plate was read on a Caliper LC 3000 in an Off-Chip mobility shift assay format, using the following parameters for a 12-sipper chip: screening pressure −2.3 psi, upstream voltage −500, and downstream voltage −3000. These conditions caused unphosphorylated substrate and phosphorylated product peptide to resolve as separate peaks allowing direct measurement of percentage of conversion of substrate to product. The percent conversion was plotted against concentration of inhibitor to produce a sigmoidal dose response curve, from which an IC50 was calculated.
# [1] = biological target: P70S6K (T412E mutant, Millipore) (Homo sapiens (Human), UniProt P23443, T412E); test: P70S6K enzyme assay; assay type: biochemical; settings: 24 μM ATP, 90 min at 25° C.
# Sequence of P70S6K (T412E mutant, Millipore) (P23443 whole entry T412E): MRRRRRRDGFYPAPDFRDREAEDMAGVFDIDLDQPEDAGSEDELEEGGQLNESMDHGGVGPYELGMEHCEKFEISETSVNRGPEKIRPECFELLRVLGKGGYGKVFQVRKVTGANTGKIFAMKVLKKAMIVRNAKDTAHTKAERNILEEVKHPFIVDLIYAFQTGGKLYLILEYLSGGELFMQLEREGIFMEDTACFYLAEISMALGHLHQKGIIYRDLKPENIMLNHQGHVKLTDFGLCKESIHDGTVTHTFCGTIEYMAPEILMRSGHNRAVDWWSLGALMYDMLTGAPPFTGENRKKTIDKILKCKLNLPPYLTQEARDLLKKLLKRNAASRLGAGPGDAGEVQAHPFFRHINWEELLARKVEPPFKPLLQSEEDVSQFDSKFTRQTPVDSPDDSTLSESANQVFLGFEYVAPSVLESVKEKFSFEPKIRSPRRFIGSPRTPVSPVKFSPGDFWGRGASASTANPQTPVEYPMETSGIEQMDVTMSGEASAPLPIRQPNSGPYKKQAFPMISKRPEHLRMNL
# Protocol: P70S6K inhibitor compounds were diluted and plated in 96 well plates. A reaction mixture including the following components was then added to the compound plate to initiate the enzyme reaction; P70S6K (3 nM, T412E mutant, Millipore) was mixed with 24 μM ATP in an assay buffer containing 100 mM Hepes (pH 7.5), 5 mM MgCl2, 1 mM DTT, 0.015% Brij and 1 μM of the substrate peptide FITC-AHA-AKRRRLSSLRA-OH (derived from the S6 ribosomal protein sequence, FITC=fluorescein isothiocyanate, AHA=6-aminohexanoic acid). The reaction was incubated for 90 min at 25° C., before the addition of 10 mM EDTA to stop the reaction. The proportion of substrate and product (phosphorylated) peptide was analysed on a Caliper Life Sciences Lab Chip 3000, using a pressure of −1.4 psi, and upstream and downstream voltages of −3000 and −700 respectively. Product peaks were resolved before substrate peaks on the resulting chromatograms.
# Sequence of His-AKT (Full Length) (P31749 whole entry): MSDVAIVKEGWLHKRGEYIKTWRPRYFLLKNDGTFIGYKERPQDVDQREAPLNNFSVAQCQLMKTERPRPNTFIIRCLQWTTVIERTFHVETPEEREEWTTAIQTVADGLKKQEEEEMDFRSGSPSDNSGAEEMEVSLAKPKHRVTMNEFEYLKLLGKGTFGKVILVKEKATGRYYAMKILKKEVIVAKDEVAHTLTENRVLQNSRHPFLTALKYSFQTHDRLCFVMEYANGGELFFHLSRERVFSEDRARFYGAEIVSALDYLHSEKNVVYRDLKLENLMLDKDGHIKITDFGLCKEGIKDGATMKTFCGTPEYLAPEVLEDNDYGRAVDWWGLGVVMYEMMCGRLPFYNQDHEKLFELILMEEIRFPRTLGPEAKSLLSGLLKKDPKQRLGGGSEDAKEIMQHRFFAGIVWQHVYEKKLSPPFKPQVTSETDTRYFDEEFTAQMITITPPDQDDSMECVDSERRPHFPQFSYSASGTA
SMILES,IC50 (His-AKT (Full Length)) [nM],IC50 [1] [nM]
"CN(C)CC(c1ccc(C(F)(F)F)cc1)N1CCN(c2ncnc3c2NC(=O)CN3)CC1 (stereo not shown) [Compound A28, 4-{4-[2-dimethylamino-1-(4-trifluoromethyl-phenyl)-ethyl]-piperazin-1-yl}-7,8-dihydro-5H-pteridin-6-one]",101 to 500,501 to 1000
"O=C1CNc2ncnc(N3CCN(C(CN4CCCC4)c4ccc(F)cc4)CC3)c2N1 (stereo not shown) [Compound A29, 4-{4-[1-(4-fluoro-phenyl)-2-(pyrrolidin-yl)-ethyl]-piperazin-1-yl}-7,8-dihydro-5H-pteridin-6-one]",> 1000,> 1000
"O=C1CNc2ncnc(N3CCN(C(CN4CCCC4)c4ccc(Cl)cc4)CC3)c2N1 (stereo not shown) [Compound A30, 4-{4-[1-(4-chloro-phenyl)-2-(pyrrolidin-yl)-ethyl]-piperazin-1-yl}-7,8-dihydro-5H-pteridin-6-one]",501 to 1000,501 to 1000
"O=C1CNc2ncnc(N3CCN(C(CN4CCCCC4)c4ccc(F)cc4)CC3)c2N1 (stereo not shown) [Compound A31, 4-{4-[1-(4-fluoro-phenyl)-2-(piperidin-yl)-ethyl]-piperazin-1-yl}-7,8-dihydro-5H-pteridin-6-one]",> 1000,> 1000
"O=C1CNc2ncnc(N3CCN(C(CN4CCCCC4)c4ccc(Cl)cc4)CC3)c2N1 (stereo not shown) [Compound A32, 4-{4-[1-(4-chloro-phenyl)-2-(piperidin-yl)-ethyl]-piperazin-1-yl}-7,8-dihydro-5H-pteridin-6-one]",501 to 1000,> 1000
"O=C1CNc2ncnc(N3CCN(C(CN4CCCCC4)c4ccc(C(F)(F)F)cc4)CC3)c2N1 (stereo not shown) [Compound A33, 4-{4-[1-(4-trifluoro-phenyl)-2-(piperidin-yl)-ethyl]-piperazin-1-yl}-7,8-dihydro-5H-pteridin-6-one]",501 to 1000,> 1000
"O=C1CNc2ncnc(N3CCN(C(CN4CCCC4)c4ccc(C(F)(F)F)cc4)CC3)c2N1 (stereo not shown) [Compound A34, 4-{4-[2-Pyrrolidin-1-yl-1-(4-trifluoromethyl-phenyl)-ethyl]-piperazin-1-yl}-7,8-dihydro-5H-pteridin-6-one]",> 1000,> 1000
"O=C1CNc2ncnc(N3CCN(C(CN4CCCC4)c4ccccc4F)CC3)c2N1 (stereo not shown) [Compound A35, 4-(4-(1-(2-fluorophenyl)-2-(pyrrolidin-1-yl)ethyl)piperazin-1-yl)-7,8-dihydropteridin-6(5H)-one]",> 1000,> 1000
"CN(C)CC(c1ccccc1F)N1CCN(c2ncnc3c2NC(=O)CN3)CC1 (stereo not shown) [Compound A36, 4-(4-(2-(dimethylamino)-1-(2-fluorophenyl)ethyl)piperazin-1-yl)-7,8-dihydropteridin-6(5H)-one]",> 1000,> 1000
"O=C1CNc2ncnc(N3CCN(C(CN4CCC4)c4ccccc4F)CC3)c2N1 (stereo not shown) [Compound A37, 4-(4-(2-(azetidin-1-yl)-1-(2-fluorophenyl)ethyl)piperazin-1-yl)-7,8-dihydropteridin-6(5H)-one]",> 1000,> 1000
"O=C1CNc2ncnc(N3CCN(C(CN4CCCCC4)c4ccccc4F)CC3)c2N1 (stereo not shown) [Compound A38, 4-(4-(1-(2-fluorophenyl)-2-(piperidin-1-yl)ethyl)piperazin-1-yl)-7,8-dihydropteridin-6(5H)-one]",> 1000,> 1000
"NCC(c1ccccc1Cl)N1CCN(c2ncnc3c2NC(=O)CN3)CC1 (stereo not shown) [Compound A39, 4-(4-(2-amino-1-(2-chlorophenyl)ethyl)piperazin-1-yl)-7,8-dihydropteridin-6(5H)-one]",> 1000,> 1000
"CN(C)CC(c1ccccc1Cl)N1CCN(c2ncnc3c2NC(=O)CN3)CC1 (stereo not shown) [Compound A40, 4-(4-(1-(2-chlorophenyl)-2-(dimethylamino)ethyl)piperazin-1-yl)-7,8-dihydropteridin-6(5H)-one]",> 1000,> 1000
"CNCC(c1ccccc1Cl)N1CCN(c2ncnc3c2NC(=O)CN3)CC1 (stereo not shown) [Compound A41, 4-(4-(1-(2-chlorophenyl)-2-(methylamino)ethyl)piperazin-1-yl)-7,8-dihydropteridin-6(5H)-one]",> 1000,> 1000
"O=C1CNc2ncnc(N3CCN(C(CN4CCC4)c4ccccc4Cl)CC3)c2N1 (stereo not shown) [Compound A42, 4-(4-(2-(azetidin-1-yl)-1-(2-chlorophenyl)ethyl)piperazin-1-yl)-7,8-dihydropteridin-6(5H)-one]",> 1000,> 1000
"O=C1CNc2ncnc(N3CCN(C(CN4CCCC4)c4ccccc4Cl)CC3)c2N1 (stereo not shown) [Compound A43, 4-(4-(1-(2-chlorophenyl)-2-(pyrrolidin-1-yl)ethyl)piperazin-1-yl)-7,8-dihydropteridin-6(5H)-one]",> 1000,> 1000
"O=C1CNc2ncnc(N3CCN(C(CN4CCCCC4)c4ccccc4Cl)CC3)c2N1 (stereo not shown) [Compound A44, 4-(4-(1-(2-chlorophenyl)-2-(piperidin-1-yl)ethyl)piperazin-1-yl)-7,8-dihydropteridin-6(5H)-one]",> 1000,> 1000
"Cc1ccccc1C(CN(C)C)N1CCN(c2ncnc3c2NC(=O)CN3)CC1 (stereo not shown) [Compound A45, 4-(4-(2-(dimethylamino)-1-(o-tolyl)ethyl)piperazin-1-yl)-7,8-dihydropteridin-6(5H)-one]",> 1000,> 1000
"Cc1ccccc1C(CN1CCCC1)N1CCN(c2ncnc3c2NC(=O)CN3)CC1 (stereo not shown) [Compound A46, 4-(4-(2-(pyrrolidin-1-yl)-1-(o-tolyl)ethyl)piperazin-1-yl)-7,8-dihydropteridin-6(5H)-one]",> 1000,> 1000
"Cc1ccccc1C(CN1CCCCC1)N1CCN(c2ncnc3c2NC(=O)CN3)CC1 (stereo not shown) [Compound A47, 4-(4-(2-(piperidin-1-yl)-1-(o-tolyl)ethyl)piperazin-1-yl)-7,8-dihydropteridin-6(5H)-one]",> 1000,> 1000
NCC(c1ccc(F)c(F)c1)N1CCN(c2ncnc3c2NC(=O)CN3)CC1 (stereo not shown) [Compound A48],> 1000,> 1000
"CN(C)CC(c1ccc(F)c(F)c1)N1CCN(c2ncnc3c2NC(=O)CN3)CC1 (stereo not shown) [Compound A49, 4-(4-(1-(3,4-difluorophenyl)-2-(dimethylamino)ethyl)piperazin-1-yl)-7,8-dihydropteridin-6(5H)-one]",> 1000,> 1000
"CNCC(c1ccc(F)c(F)c1)N1CCN(c2ncnc3c2NC(=O)CN3)CC1 (stereo not shown) [Compound A50, 4-(4-(1-(3,4-difluorophenyl)-2-(methylamino)ethyl)piperazin-1-yl)-7,8-dihydropteridin-6(5H)-one]",> 1000,> 1000
"O=C1CNc2ncnc(N3CCN(C(CN4CCC4)c4ccc(F)c(F)c4)CC3)c2N1 (stereo not shown) [Compound A51, 4-(4-(2-(azetidin-1-yl)-1-(3,4-difluorophenyl)ethyl)piperazin-1-yl)-7,8-dihydropteridin-6(5H)-one]",> 1000,> 1000
"O=C1CNc2ncnc(N3CCN(C(CN4CCCC4)c4ccc(F)c(F)c4)CC3)c2N1 (stereo not shown) [Compound A52, 4-(4-(1-(3,4-difluorophenyl)-2-(pyrrolidin-1-yl)ethyl)piperazin-1-yl)-7,8-dihydropteridin-6(5H)-one]",> 1000,> 1000
"O=C1CNc2ncnc(N3CCN(C(CN4CCCCC4)c4ccc(F)c(F)c4)CC3)c2N1 (stereo not shown) [Compound A53, 4-(4-(1-(3,4-difluorophenyl)-2-(piperidin-1-yl)ethyl)piperazin-1-yl)-7,8-dihydropteridin-6(5H)-one]",> 1000,> 1000
